Experimental data as given in patent US7439343B2, “Aminoglycoside-polyamine displacers and methods of use in displacement chromatography” (Rensselaer Polytechnic Institute, priority 2005, dated 2008).

Legend:
[1] = target: horse cytochrome-C on Source 15S cation exchange resin; assay: Batch displacement assay, cytochrome-C on Source 15S; format: binding; conditions: input displacer concentration displacing 50% of bound protein; 50 mM phosphate, pH 6.0
Text: (§1) A modified batch displacement assay was used to investigate displacer efficacy of the carbohydrate derivatives over a wide range of concentrations. The carbohydrate derivatives from hereon will be referred to as the displacer candidates unless otherwise specified. Different input concentrations of the displacer candidates were employed to determine the DC50 value, which is the input displacer concentration required to displace fifty percent of the initially bound protein. The lower the DC50 value the more efficacious is the displacer candidate.
(§2) Column 201 is the displacer candidate evaluated. Column 202 is DC50 values of horse cytochrome-C on HP Sepharose SP. Column 203 is the DC50 values of horse cytochrome-C on Source 15S cation exchange resin. The above approach was employed to determine the DC50 values of the displacer candidates for the displacement of horse cytochrome-C on HP Sepharose SP and Source 15S cation exchange resins at pH 6.0.
The influence of the stationary phase on displacer affinity was investigated using a second strong cation exchange resin, Source 15S.
(§3) The bulk stationary phase (HP Sepharose SP or Source 15S) was first washed once with de-ionized water and then three times with the buffer, (50 mM phosphate, pH 6.0) and allowed to equilibrate for 2 hours. After gravity-settling of the stationary phase, the supernatant was removed and 3.0 mL of the remaining stationary phase slurry was equilibrated with 36 ml containing 3 mg/ml of the protein (horse heart cytochrome-C or chicken egg lysozyme) in 50 mM phosphate buffer, pH 6.0, at 20° C.
(§4) The protein was equilibrated with the resin for five hours in order to attain complete equilibration during which, the stationary phase was allowed to gravity-settle. Upon settling, the supernatant was removed and the protein content in the supernatant was determined using absorbance detection at 280 or 405 nm using a plate reader. The mass of the protein adsorbed on the stationary phase was determined by mass balance.
(§5) For the screening experiments, 300 μL of different initial concentrations (ranging from 0.3 to 5 mM) of a displacer solution was added to 25 μL aliquots of the stationary phase slurry with bound protein. (note: a different displacer candidate and concentration were employed for each vial to enable parallel screening). The system was equilibrated for 5 h. After equilibrium was achieved, the supernatant was removed and the protein content was determined by absorbance detection at 280 or 405 nm using a plate reader.
(§6) The percent protein displaced, was calculated for each aliquot based on the protein mass balance and the data was plotted as a function of the initial displacer concentration. The resulting plots were then employed to determine the initial displacer concentration required to displace fifty percent of the adsorbed protein (i.e. the DC50).

[2] = target: horse cytochrome-C on HP Sepharose SP; assay: Batch displacement assay, cytochrome-C on HP Sepharose SP; format: binding; conditions: input displacer concentration displacing 50% of bound protein; 50 mM phosphate, pH 6.0
Text: as §1
as §2, with “Table 1 is of displacer candidates and their respective DC50 values of horse cytochrome-C on HP Sepharose SP and Source 15S cation exchange resins in accordance with the present invention. Column 201” for “Column 201”
as §3, §4, §5, §6

[3] = system: chicken-egg lysozyme adsorbed on HP Sepharose SP; assay: Batch displacement assay, lysozyme on HP Sepharose SP; format: binding; conditions: displacer concentration 2.5 mM
Description: FIG. 2 depicts a graph comparing the % lysozyme and % cytochrome-C displaced on HP Sepharose SP in accordance with the present invention. The Y axis is % protein displaced. The X axi is the displacer candidate evaluated. The displacer candidate concentration is 2.5 mM in an embodiment of the present invention. In order to evaluate the displacer candidates with another protein, experiments were carried out with chicken-egg lysozyme adsorbed on HP Sepharose SP. Referring to FIG. 2, a comparison of the percent protein displaced for both lysozyme and cytochrome-C at displacer concentrations of 2.5 mM is shown. The data is arranged in increasing order of percent lysozyme displaced. […] Upon settling, the supernatant was removed and the protein content in the supernatant was determined using absorbance detection at 280 or 405 nm using a plate reader. The mass of the protein adsorbed on the stationary phase was determined by mass balance. […] After equilibrium was achieved, the supernatant was removed and the protein content was determined by absorbance detection at 280 or 405 nm using a plate reader. The percent protein displaced, was calculated for each aliquot based on the protein mass balance and the data was plotted as a function of the initial displacer concentration. […]

DNA = assay: Ethidium bromide displacement assay (DNA binding); set-up: species or system calf; conditions: 96-well format
Text: A method for condensing DNA comprising combining the DNA with at least one of the aforementioned derivatives of a carbohydrate compound wherein the DNA is bound to the carbohydrate compound is presented in accordance with the present invention. FIG. 3 depicts a graph of DNA binding efficacy of the displacer candidates in an embodiment of the present invention. The Y axis is % fluorescence decreased and the X axis is the carbohydrate derivative evaluated.
Referring to FIG. 3, an ethidium bromide displacement assay was employed to evaluate the DNA-binding affinity of carbohydrate derivatives in a 96-well format. Using this screen, the percent fluorescence decreased was used as a parameter to rank the DNA-binding efficacy of the various compounds.

## NCCCNCCCCNCCCNC(=O)NC1C(O)OC(COC(=O)NCCCNCCCCNCCCN)C(O)C1O (stereo not drawn) [4a]
[1]
  DC50: 0.9 mM
  DC50-Cytochrome C on Source 15S: sub-millimolar
[2]
  DC50: 2.8 mM

## COC1OC(COC(=O)NCCCNCCCCNCCCN)C(O)C(O)C1NC(=O)NCCCNCCCCNCCCN (stereo not drawn) [4b]
[1]
  DC50: 0.8 mM
  DC50-Cytochrome C on Source 15S: sub-millimolar
[2]
  DC50: 3.6 mM

## NCCCNCCCCNCCCNC(=O)NC1C(OCc2ccccc2)OC(COC(=O)NCCCNCCCCNCCCN)C(O)C1O (stereo not drawn) [4c]
[1]
  DC50: 0.8 mM
  DC50-Cytochrome C on Source 15S: sub-millimolar
[2]
  DC50: 1.3 mM

## NCCCNCCCCNCCCNC(=O)NC1C(OCc2ccccc2)OC(COC(=O)NCCCNCCCCNCCCN)C(O)C1O (stereo not drawn) [4d]
[1]
  DC50: 0.8 mM
  DC50-Cytochrome C on Source 15S: sub-millimolar
[2]
  DC50: 2.8 ± 0.2 mM

## NCCNC(=O)NCC1OC(OC2C(CO)OC(OC3C(O)C(NC(=O)NCCN)CC(NC(=O)NCCN)C3OC3OC(CNC(=O)NCCN)C(O)C(O)C3NC(=O)NCCN)C2O)C(NC(=O)NCCN)C(O)C1O (stereo not drawn) [14a]
[1]
  DC50: 1.3 ± 0.09 mM
[2]
  DC50: 1.6 mM
  DC50-Cytochrome C on HP Sepharose SP: highest affinity among the neomycin derivatives

## NCCNC(=O)NCC1OC(OC2C(NC(=O)NCCN)CC(NC(=O)NCCN)C(O)C2O)C(NC(=O)NCCN)C(O)C1O (stereo not drawn) [17a]
[1]
  DC50: 2.3 ± 0.04 mM
[2]
  DC50: 2.1 mM

## NCCCNCCCCNCCCNC(=O)NCC1OC(OC2C(NC(=O)NCCCNCCCCNCCCN)CC(NC(=O)NCCCNCCCCNCCCN)C(O)C2O)C(NC(=O)NCCCNCCCCNCCCN)C(O)C1O (stereo not drawn) [17b, neamine tetraspermine]
[1]
  DC50: 0.6 mM
[2]
  DC50: 0.7 mM
  DC50-Cytochrome C on HP Sepharose SP: sub-millimolar
[3]
  percent protein displaced (lysozyme): 52.8%

## COC1OC(CO)C(OC2OC(CNC(=O)NCCNCCN)C(O)C(O)C2NC(=O)NCCNCCN)C1O (stereo not drawn) [20a]
[1]
  DC50: 4.8 ± 0.03 mM
[2]
  DC50: 9.4 ± 2.65 mM

## COC1OC(CO)C(OC2OC(CNC(=O)NCCCNCCCCNCCCN)C(O)C(O)C2NC(=O)NCCCNCCCCNCCCN)C1O (stereo not drawn) [20b]
[1]
  DC50: 0.8 ± 0.04 mM
  DC50-Cytochrome C on Source 15S: sub-millimolar
[2]
  DC50: 1.1 mM

## NCCNC(=O)NCC1OC(OC2C(NC(=O)NCCN)CC(NC(=O)NCCN)C(OC3OC(CO)C(O)C(NC(=O)NCCN)C3O)C2O)C(O)C(O)C1O (stereo not drawn) [23a]
[1]
  DC50: 1.7 ± 0.02 mM
[2]
  DC50: 2 ± 0.15 mM

## NCCCNCCCCNCCCNC(=O)NCC1OC(OC2C(NC(=O)NCCCNCCCCNCCCN)CC(NC(=O)NCCCNCCCCNCCCN)C(OC3OC(CO)C(O)C(NC(=O)NCCCNCCCCNCCCN)C3O)C2O)C(O)C(O)C1O (stereo not drawn) [23c, kanamycin A tetraspermine]
[1]
  DC50: 0.9 mM
[2]
  DC50: 1 mM
  DC50-Cytochrome C on HP Sepharose SP: sub-millimolar

## NC[C@H]1O[C@H](O[C@H]2[C@H](O)[C@@H](O[C@H]3O[C@H](CO)[C@@H](O)[C@H](N)[C@H]3O)[C@H](N)C[C@@H]2N)[C@H](N)[C@@H](O)[C@@H]1O [Bekanamycin, bekanamycin, reference compound]
[1]
  DC50: 3.1 ± 2.29 mM
[2]
  DC50: 6.2 ± 0.37 mM
DNA
  % fluorescence decreased: relatively low efficacies

## NCCNCCN [Diethylenetriamine, diethylenetriamine, reference compound]
[1]
  DC50: 14.4 ± 3.67 mM
[2]
  DC50: 10.8 ± 0.19 mM

## NCCN [Ethylenediamine, ethylenediamine, reference compound]
[1]
  DC50: 17.6 ± 2.15 mM
[2]
  DC50: 20.2 ± 2.67 mM

## NC[C@H]1O[C@H](O[C@H]2[C@H](O)[C@@H](O)[C@H](N)C[C@@H]2N)[C@H](N)[C@@H](O)[C@@H]1O [Neamine, neamine, reference compound]
[1]
  DC50: 4.9 ± 1.67 mM
[2]
  DC50: 5.6 mM

## NCC1OC(OC2C(CO)OC(OC3C(O)C(N)CC(N)C3OC3OC(CN)C(O)C(O)C3N)C2O)C(N)C(O)C1O (stereo not drawn) [Neomycin, neomycin, reference compound]
[1]
  DC50: 1.7 ± 0.02 mM
[2]
  DC50: 2.8 mM
DNA
  % fluorescence decreased: relatively low efficacies

## NCCCCNCCCN [Spermidine, spermidine, reference compound]
[1]
  DC50: 5.8 ± 0.44 mM
[2]
  DC50: 7.7 ± 1.44 mM
DNA
  % fluorescence decreased: relatively low efficacies

## NCCCNCCCCNCCCN [Spermine, spermine, reference compound]
[1]
  DC50: 4.3 ± 0.64 mM
[2]
  DC50: 4.8 mM
DNA
  % fluorescence decreased: relatively low efficacies

## NCCCNCCCCNCCCNC(=O)OCC1OC(n2cnc3c(N)ncnc32)CC1O (stereo not drawn) [compound 7]
[1]
  DC50: 6.2 ± 0.46 mM
[2]
  DC50: 11.7 ± 0.1 mM

## NCCCNCCCCNCCCNC(=O)OC1CC(n2cnc3c(N)ncnc32)OC1CO (stereo not drawn) [compound 9]
[1]
  DC50: 12.9 ± 1.46 mM
[2]
  DC50: 12.3 ± 0.25 mM

## NCCCNCCCCNCCCNC(=O)Nc1ncnc2c1ncn2C1CC(OC(=O)NCCCNCCCCNCCCN)C(COC(=O)NCCCNCCCCNCCCN)O1 (stereo not drawn) [compound 11]
[1]
  DC50: 1.1 ± 0.14 mM
[2]
  DC50: 2.3 mM

## NCCNC(=O)NCC1OC(OC2C(NC(=O)NCCN)CC(NC(=O)NCCN)C(OC3OC(CO)C(O)C(NC(=O)NCCN)C3O)C2O)C(N)C(O)C1O (stereo not drawn) [compound 24]
[1]
  DC50: 1.9 ± 0.06 mM
[2]
  DC50: 1.9 ± 0.01 mM
